Experimental data taken from US11859212B2, “Method for producing intestinal organoid derived from pluripotent stem cells” (PUBLIC UNIVERSITY CORPORATION NAGOYA CITY UNIVERSITY, priority 2017, dated 2024).
Read-outs that look alike come from different tables or passages of the source.

Columns and labels:
ABCG2/BCRP = molecular target: T1, ABCG2/BCRP (Homo sapiens, UniProt Q9UNQ0); assay: Hoechst 33342 transport experiment, human intestinal organoids obtained with polysaccharide polymers; type: in vitro ADME
T1 sequence (Q9UNQ0 1-655): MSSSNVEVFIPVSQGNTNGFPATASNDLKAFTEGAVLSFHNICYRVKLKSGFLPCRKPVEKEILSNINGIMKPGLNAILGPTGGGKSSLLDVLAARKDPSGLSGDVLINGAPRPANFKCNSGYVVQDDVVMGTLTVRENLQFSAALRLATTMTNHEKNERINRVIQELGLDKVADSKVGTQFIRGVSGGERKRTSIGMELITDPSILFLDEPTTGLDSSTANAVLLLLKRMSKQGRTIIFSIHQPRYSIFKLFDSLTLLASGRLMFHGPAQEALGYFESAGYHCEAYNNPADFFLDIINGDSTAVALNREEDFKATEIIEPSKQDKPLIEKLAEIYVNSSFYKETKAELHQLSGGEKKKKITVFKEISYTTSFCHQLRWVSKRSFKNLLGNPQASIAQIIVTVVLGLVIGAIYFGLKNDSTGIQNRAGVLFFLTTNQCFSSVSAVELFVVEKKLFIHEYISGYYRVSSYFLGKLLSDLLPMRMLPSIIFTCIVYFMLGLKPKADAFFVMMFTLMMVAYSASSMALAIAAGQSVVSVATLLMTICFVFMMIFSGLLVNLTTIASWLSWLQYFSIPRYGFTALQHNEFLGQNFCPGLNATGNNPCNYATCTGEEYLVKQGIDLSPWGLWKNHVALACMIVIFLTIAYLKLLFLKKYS

CYP3A4 [1] = tested on: CYP3A4
CYP3A8 [2] = tested on: CYP3A8
CYP3A4 [3] = assay: CYP3A4 induction ability of human intestinal organoids obtained with polysaccharide polymers (mRNA and midazolam metabolic activity); settings: VD3 1 μmol/L, 72 hours
CYP3A4 [4] = assay: Drug metabolism experiment with midazolam, CYP3A4 metabolic activity of human intestinal organoids obtained with polysaccharide polymers; settings: 5 μmol/L midazolam
CYP3A8 [5] = assay: Drug metabolism experiment with midazolam, CYP3A8 metabolic activity of cynomolgus monkey intestinal organoids; settings: 5 μmol/L midazolam, 37° C., 24 hours
ABCB1/MDR1 [6] = molecular target: T2, ABCB1/MDR1 (Homo sapiens, UniProt P08183); assay: Rhodamine 123 uptake experiment, function of ABCB1/MDR1 in human intestinal organoids (fluorescence observation); type: in vitro ADME; settings: rhodamine 123 10 μmol/L, 37° C., 1 hour, absence of verapamil
ABCB1/MDR1 [7] = molecular target: T2, ABCB1/MDR1; assay: Rhodamine 123 transport experiment, human intestinal organoids obtained with polysaccharide polymers; type: in vitro ADME

T2 sequence (P08183 whole entry): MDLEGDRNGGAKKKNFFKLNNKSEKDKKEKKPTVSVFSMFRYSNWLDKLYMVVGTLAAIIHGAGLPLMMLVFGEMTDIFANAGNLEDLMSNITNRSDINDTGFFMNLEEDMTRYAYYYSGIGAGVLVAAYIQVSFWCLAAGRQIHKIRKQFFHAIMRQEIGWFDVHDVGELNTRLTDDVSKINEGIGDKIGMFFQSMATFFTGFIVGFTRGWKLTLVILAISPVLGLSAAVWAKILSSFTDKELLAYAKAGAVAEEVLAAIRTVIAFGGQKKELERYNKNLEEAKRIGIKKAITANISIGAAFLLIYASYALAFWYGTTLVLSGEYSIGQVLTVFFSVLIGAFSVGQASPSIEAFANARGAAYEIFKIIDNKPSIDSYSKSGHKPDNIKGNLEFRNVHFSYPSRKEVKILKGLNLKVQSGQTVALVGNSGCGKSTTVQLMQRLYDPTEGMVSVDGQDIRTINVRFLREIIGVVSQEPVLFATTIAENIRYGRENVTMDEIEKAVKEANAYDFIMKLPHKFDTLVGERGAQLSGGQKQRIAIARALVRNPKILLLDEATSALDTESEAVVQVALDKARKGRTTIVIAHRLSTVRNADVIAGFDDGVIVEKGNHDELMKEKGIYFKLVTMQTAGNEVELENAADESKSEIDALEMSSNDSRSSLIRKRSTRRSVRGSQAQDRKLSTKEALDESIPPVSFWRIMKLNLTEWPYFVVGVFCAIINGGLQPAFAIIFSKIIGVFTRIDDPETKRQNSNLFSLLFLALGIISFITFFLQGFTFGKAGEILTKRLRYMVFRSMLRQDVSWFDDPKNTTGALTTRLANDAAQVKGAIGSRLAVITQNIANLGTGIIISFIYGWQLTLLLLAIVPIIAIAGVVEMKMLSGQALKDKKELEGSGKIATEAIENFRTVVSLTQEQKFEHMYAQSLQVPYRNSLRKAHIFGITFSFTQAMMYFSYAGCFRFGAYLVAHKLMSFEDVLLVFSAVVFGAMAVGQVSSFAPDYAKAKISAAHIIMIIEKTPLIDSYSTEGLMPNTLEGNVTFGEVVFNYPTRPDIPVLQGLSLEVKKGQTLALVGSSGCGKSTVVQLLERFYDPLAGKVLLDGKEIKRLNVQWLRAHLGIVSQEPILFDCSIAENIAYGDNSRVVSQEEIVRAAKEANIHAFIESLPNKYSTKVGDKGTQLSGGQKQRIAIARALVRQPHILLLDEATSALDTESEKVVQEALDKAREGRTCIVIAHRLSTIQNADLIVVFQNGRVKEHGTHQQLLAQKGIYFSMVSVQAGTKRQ

Molecule: CCOc1ccc(-c2nc3ccc(-c4nc5ccc(N6CCN(C)CC6)cc5[nH]4)cc3[nH]2)cc1 [Hoechst 33342]
- excretion of Hoechst 33342 into the intestinal organoids (ABCG2/BCRP): observed

Molecule: C=C1/C(=C\C=C2/CCC[C@]3(C)[C@@H]([C@H](C)CCCC(C)(C)O)CC[C@@H]23)C[C@@H](O)C[C@@H]1O [VD3, 1α, 25-dihydroxyvitamin D3]
- induction of mRNA expression of CYP3A4 as compared with the control group (CYP3A4 [1]): approximately 4.5 times
- induction of mRNA expression of CYP3A8 as compared with the control group (CYP3A8 [2]): no induction
- midazolam metabolic activity in the inducer-added group (CYP3A4 [3]; 5 μmol/L midazolam): significantly increased
- induction of mRNA expression of CYP3A4 as compared with the control group (CYP3A4 [3]; organoids obtained with polysaccharide polymers): significantly induced

Molecule: CC(=O)N1CCN(c2ccc(OCC3COC(Cn4ccnc4)(c4ccc(Cl)cc4Cl)O3)cc2)CC1 (stereo not shown) [ketoconazole]
- effect of inhibitor on midazolam metabolic activity (CYP3A4 [4]): significantly inhibited

Molecule: Cc1ncc2n1-c1ccc(Cl)cc1C(c1ccccc1F)=NC2 [midazolam]
- midazolam metabolic activity (CYP3A8 [5]): observed
- midazolam metabolic activity (CYP3A4 [4]; 37° C., 24 hours): observed

Molecule: rhodamine 123
- excretion of rhodamine 123 into the intestinal organoids (ABCB1/MDR1 [6]): observed
- excretion of rhodamine 123 into the intestinal organoids (ABCB1/MDR1 [7]): observed
